From patent US12024503B2, “Benzethers and anilines of pyrazolyl-amino-pyrimidinyl derivatives, and compositions and methods thereof” (LYNK PHARMACEUTICALS CO. LTD., priority 2019, dated 2024) come the findings set out here.

Structures are written as SMILES. Where two headings read alike, the source gives them in different places.

Common to all, as to format: biochemical
One experiment concerns the target T1, JAK1 (Homo sapiens, UniProt P23458).
T1 construct: purchased Carna Biosciences
The experiment can be described thus: JAK1 microfluidic kinase assay (Caliper EZ Reader II, FAM labeled peptide substrate). The following applies: (5 nM), 1 mM ATP. On the procedure: (§1) Compounds were tested against JAK1, JAK2, JAK2V617F and TYK2.
(§2) Assay Formats: JAK activity was determined in the reaction buffer 50 mM HEPES, 0.01% Brij35, 10 mMMgCl2, 2 mMDTT by a microfluidic assay. The phosphorylation of a FAM labeled peptide substrate was monitored in the Caliper EZ Reader II (Perkin Elmer). The assay condition for each batch of enzyme (Carna Biosciences) was optimized to obtain 10% conversion rate of peptide substrate.
(§3) The test compounds were dissolved in DMSO to a stock concentration of 10 mM. 3-fold serially diluted compounds with top concentration of 5 μM were pre-incubated with JAK1, JAK2, JAK2V617F or TYK2 for 10 min at ambient temperature. The final DMSO concentration of assay mixture was 1%. FAM labeled peptide substrate (final concentration […]) and ATP (1 mM concentration) were sequentially added to initiate the kinase reaction at 28° C. The reaction was stopped by adding 50 mMEDTA. The reaction time for JAK1, JAK2, JAK2V617F and TYK2 was 120 min, 20 min, 30 min and 10 min, respectively.
(§4) The well in the test plate without enzyme was defined as 100% inhibition. And the well without compound but with equivalent DMSO was defined as no inhibition. The percent inhibition was calculated by the following formula. % Inhibition=(Conversionmax−Conversionsample)/(Conversionmax−Conversionmin)*100Conversionmax means the conversion rate in the positive well without addition of compound Conversionmin means the conversion rate in the well without addition of enzyme Conversionsample means the conversion rate of test compounds
(§5) The dose-response (percent inhibition) curve was plotted and IC50 values were determined by GraphPad software.

For another experiment, the target named is T2, JAK2V617F (Homo sapiens, UniProt O60674, V617F).
T2 construct: purchased Carna Biosciences
Put plainly: JAK2V617F microfluidic kinase assay (Caliper EZ Reader II, FAM labeled peptide substrate). The following applies: (2.5 nM), 1 mM ATP. As to the method:
as §1, §2, §3, §4, §5

The target of a further experiment is T3, JAK2 (Homo sapiens, UniProt O60674).
T3 construct: purchased Carna Biosciences
The experiment can be described thus: JAK2 microfluidic kinase assay (Caliper EZ Reader II, FAM labeled peptide substrate). The following applies: (0.25 nM), 1 mM ATP. As to the method:
as §1, §2, §3, §4, §5

Setting [1] is: Table 2, read-out: IC50 JAK1 (5 nM) (1 mM ATP).
Where [2] appears, read: Table 2, read-out: IC50 J2V617F (2.5 nM) (1 mM ATP).
[3] abbreviates: Table 2, read-out: IC50 JAK2 (0.25 nM) (1 mM ATP).
The mark [4] stands for this setting: Table 3B, literature compounds, read-out: JAK1 (5 nM) (1 mM ATP).
The mark [5] stands for this setting: Table 3B, literature compounds, read-out: JAK2 (0.25 nM) (1 mM ATP).
Where [6] appears, read: Table 3B, literature compounds, read-out: J2V617F (2.5 nM) (1 mM ATP).

T2 sequence (O60674 whole entry V617F): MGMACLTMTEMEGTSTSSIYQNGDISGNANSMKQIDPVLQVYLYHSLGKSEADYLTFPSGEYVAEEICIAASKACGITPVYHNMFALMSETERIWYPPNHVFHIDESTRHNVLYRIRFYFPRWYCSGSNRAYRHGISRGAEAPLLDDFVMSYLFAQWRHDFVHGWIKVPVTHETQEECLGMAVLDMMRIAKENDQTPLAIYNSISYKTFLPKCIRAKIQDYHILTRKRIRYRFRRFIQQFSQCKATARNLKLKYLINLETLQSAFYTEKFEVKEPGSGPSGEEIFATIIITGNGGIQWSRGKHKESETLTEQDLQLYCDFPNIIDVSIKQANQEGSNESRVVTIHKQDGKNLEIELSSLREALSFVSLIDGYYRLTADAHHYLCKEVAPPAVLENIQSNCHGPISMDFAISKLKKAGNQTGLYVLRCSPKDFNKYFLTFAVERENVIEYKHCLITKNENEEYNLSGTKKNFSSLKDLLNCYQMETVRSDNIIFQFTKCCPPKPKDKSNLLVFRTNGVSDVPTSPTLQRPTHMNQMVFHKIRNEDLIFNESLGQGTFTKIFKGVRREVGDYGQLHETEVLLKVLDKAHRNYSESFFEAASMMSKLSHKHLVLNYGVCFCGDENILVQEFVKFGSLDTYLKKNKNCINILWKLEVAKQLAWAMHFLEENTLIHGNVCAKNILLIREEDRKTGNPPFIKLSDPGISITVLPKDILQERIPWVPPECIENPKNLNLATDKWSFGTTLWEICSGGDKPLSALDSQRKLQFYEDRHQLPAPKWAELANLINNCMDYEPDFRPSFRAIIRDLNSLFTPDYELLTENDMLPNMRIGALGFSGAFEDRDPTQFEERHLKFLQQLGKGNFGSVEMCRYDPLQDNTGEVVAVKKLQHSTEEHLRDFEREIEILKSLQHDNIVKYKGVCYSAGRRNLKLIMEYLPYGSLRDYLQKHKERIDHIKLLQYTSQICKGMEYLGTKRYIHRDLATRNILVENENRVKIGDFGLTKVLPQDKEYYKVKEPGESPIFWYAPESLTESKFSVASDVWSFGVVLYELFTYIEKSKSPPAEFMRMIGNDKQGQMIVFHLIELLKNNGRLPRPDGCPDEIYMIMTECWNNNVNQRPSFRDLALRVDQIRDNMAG
T1 sequence (P23458 whole entry): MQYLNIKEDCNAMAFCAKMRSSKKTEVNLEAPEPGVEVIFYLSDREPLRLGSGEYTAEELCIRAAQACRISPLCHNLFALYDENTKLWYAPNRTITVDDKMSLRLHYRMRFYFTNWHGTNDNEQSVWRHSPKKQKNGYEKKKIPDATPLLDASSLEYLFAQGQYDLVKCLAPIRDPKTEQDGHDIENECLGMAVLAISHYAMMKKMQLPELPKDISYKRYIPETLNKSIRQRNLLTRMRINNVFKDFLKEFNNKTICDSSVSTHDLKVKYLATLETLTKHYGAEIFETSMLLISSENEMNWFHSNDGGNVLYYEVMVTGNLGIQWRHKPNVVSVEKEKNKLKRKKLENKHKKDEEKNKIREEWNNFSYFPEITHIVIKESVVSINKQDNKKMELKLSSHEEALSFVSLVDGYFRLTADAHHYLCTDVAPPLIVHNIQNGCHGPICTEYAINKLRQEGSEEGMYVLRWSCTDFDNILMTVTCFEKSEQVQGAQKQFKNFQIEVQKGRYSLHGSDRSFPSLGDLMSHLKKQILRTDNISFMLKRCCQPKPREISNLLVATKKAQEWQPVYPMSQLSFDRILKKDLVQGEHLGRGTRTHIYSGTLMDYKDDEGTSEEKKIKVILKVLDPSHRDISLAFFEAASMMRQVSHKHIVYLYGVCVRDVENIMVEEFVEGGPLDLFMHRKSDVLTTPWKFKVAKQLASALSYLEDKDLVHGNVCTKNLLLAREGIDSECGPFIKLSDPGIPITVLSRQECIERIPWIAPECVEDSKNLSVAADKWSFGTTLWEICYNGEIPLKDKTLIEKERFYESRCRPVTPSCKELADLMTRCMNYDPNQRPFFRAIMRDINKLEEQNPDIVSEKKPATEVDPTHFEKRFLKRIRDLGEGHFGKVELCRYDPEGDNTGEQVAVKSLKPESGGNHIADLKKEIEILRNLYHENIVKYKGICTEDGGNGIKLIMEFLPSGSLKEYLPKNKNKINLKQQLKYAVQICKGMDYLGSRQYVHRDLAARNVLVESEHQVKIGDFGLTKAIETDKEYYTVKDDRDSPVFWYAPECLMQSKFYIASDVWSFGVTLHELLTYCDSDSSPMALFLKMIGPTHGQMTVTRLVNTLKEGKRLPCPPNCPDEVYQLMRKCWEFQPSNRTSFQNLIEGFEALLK
T3 sequence (O60674 whole entry): as the sequence (O60674 whole entry V617F) above, with F617V counted along it

With `Cc1cnc(Nc2cnn(C3CC3)c2)nc1-c1ccc(OC2CC(C#N)C2)cc1` (centres unmarked) [Example 2, 3-(4-(2-((1-cyclopropyl-1H-pyrazol-4-yl)amino)-5-methylpyrimidin-4-yl)phenoxy)cyclobutanecarbonitrile], the IC50 is 72.7 nM on JAK1 (setting [1]) and 171 nM on JAK2V617F (setting [2]).

`Cc1cnc(Nc2cnn(C3CCN(C(=O)C4CC4)CC3)c2)nc1-c1ccc(OCC2(C#N)CC2)c(F)c1` [Example 8, 1-((4-(2-((1-(1-(cyclopropanecarbonyl)piperidin-4-yl)-1H-pyrazol-4-yl)amino)-5-methylpyrimidin-4-yl)-2-fluorophenoxy)methyl)cyclopropane-carbonitrile]: the IC50 is 6.2 nM at JAK1 (setting [1]) and under 1.25 nM on JAK2V617F (setting [2]).

As for `Cc1cnc(Nc2cnn(C3CCN(C(=O)C4(C)CC4)CC3)c2)nc1-c1ccc(OCC2(C#N)CC2)c(F)c1` [Example 9, 1-((2-fluoro-4-(5-methyl-2-((1-(1-(1-methylcyclopropanecarbonyl)piperidin-4-yl)-1H-pyrazol-4-yl)amino)pyrimidin-4-yl)phenoxy)methyl)cyclopropane-carbonitrile], the IC50 on JAK1 (setting [1]) is 7.06 nM; at JAK2V617F (setting [2]), under 1.25 nM.

As for `Cc1cnc(Nc2cnn(C3CC3)c2)nc1-c1cc(F)c(OCC2(C#N)CC2)c(F)c1` [Example 10, 1-((4-(2-((1-cyclopropyl-1H-pyrazol-4-yl)amino)-5-methylpyrimidin-4-yl)-2,6-difluorophenoxy)methyl)cyclopropane carbonitrile], the values for the IC50 on JAK1 (setting [1]) and on JAK2V617F (setting [2]) were 124 nM and 113 nM, respectively.

Consider `CC(=O)N1CCC(n2cc(Nc3ncc(C)c(-c4ccc(OCC5(C#N)CC5)c(F)c4)n3)cn2)CC1` [Example 13, 1-((4-(2-((1-(1-acetylpiperidin-4-yl)-1H-pyrazol-4-yl)amino)-5-methylpyrimidin-4-yl)-2-fluorophenoxy)methyl)cyclopropane-carbonitrile], for which the IC50 at JAK1 (setting [1]) is 5.58 nM; at JAK2V617F (setting [2]), under 1.25 nM.

As to `Cc1cnc(Nc2cnn(C3CCOCC3)c2)nc1-c1ccc(OCC(C)(C)C#N)cc1` [Example 15, 2,2-dimethyl-3-(4-(5-methyl-2-((1-(tetrahydro-2H-pyran-4-yl)-1H-pyrazol-4-yl)amino)pyrimidin-4-yl)phenoxy)propanenitrile], the IC50 on JAK1 (setting [1]) is 5.71 nM; at JAK2V617F (setting [2]), under 1.25 nM.

For `Cc1cnc(Nc2cnn(C3CCOCC3)c2)nc1-c1ccc(OC(C)C(C)(C)C#N)cc1` (centres unmarked) [Example 16, 2,2-dimethyl-3-(4-(5-methyl-2-((1-(tetrahydro-2H-pyran-4-yl)-1H-pyrazol-4-yl)amino)pyrimidin-4-yl)phenoxy)butanenitrile], the IC50 at JAK1 (setting [1]) was 39.2 nM; at JAK2V617F (setting [2]) it was 6.33 nM.

Consider `N#CC1(COc2ccc(-c3nc(Nc4cnn(C5CCOCC5)c4)ncc3F)cc2F)CC1` [Example 22, 1-((2-fluoro-4-(5-fluoro-2-((1-(tetrahydro-2H-pyran-4-yl)-1H-pyrazol-4-yl)amino)pyrimidin-4-yl)phenoxy)methyl)cyclopropane-carbonitrile], for which the IC50 on JAK1 (setting [1]) was determined as 136 nM; at JAK2V617F (setting [2]) it was 56.8 nM.

Take `N#CC1(COc2ccc(-c3nc(Nc4cnn(C5CCOCC5)c4)ncc3Cl)cc2F)CC1` [Example 23, 1-((4-(5-chloro-2-((1-(tetrahydro-2H-pyran-4-yl)-1H-pyrazol-4-yl)amino)pyrimidin-4-yl)-2-fluorophenoxy)methyl)cyclopropane-carbonitrile]: the results for the IC50 at JAK1 (setting [1]) and at JAK2V617F (setting [2]) were 13.6 nM and under 1.25 nM, respectively.

Consider `N#CC1(COc2ccc(-c3nc(Nc4cnn(C5CC5)c4)ncc3F)cc2F)CC1` [Example 24, 1-((4-(2-((1-cyclopropyl-1H-pyrazol-4-yl)amino)-5-fluoropyrimidin-4-yl)-2-fluorophenoxy)methyl)cyclopropane-carbonitrile], for which the values for the IC50 at JAK1 (setting [1]) and on JAK2V617F (setting [2]) were 84.2 nM and 111 nM, respectively.

With `CC(C)(C#N)COc1ccc(-c2nc(Nc3cnn(C4CCOCC4)c3)ncc2F)cc1F` [Example 25, 3-(2-fluoro-4-(5-fluoro-2-((1-(tetrahydro-2H-pyran-4-yl)-1H-pyrazol-4-yl)amino)pyrimidin-4-yl)phenoxy)-2,2-dimethylpropanenitrile], the IC50 on JAK1 (setting [1]) and on JAK2V617F (setting [2]) was 32 nM in each case.

In the case of `CC(C)(C#N)COc1ccc(-c2nc(Nc3cnn(C4CCOCC4)c3)ncc2Cl)cc1F` [Example 26, 3-(4-(5-chloro-2-((1-(tetrahydro-2H-pyran-4-yl)-1H-pyrazol-4-yl)amino)pyrimidin-4-yl)-2-fluorophenoxy)-2,2-dimethylpropanenitrile], the IC50 at JAK1 (setting [1]) was 6.17 nM; at JAK2V617F (setting [2]) it was under 1.25 nM.

Take `N#CC1(COc2ccc(-c3nc(Nc4cnn(C5CC5)c4)ncc3Cl)cc2F)CC1` [Example 27, 1-((4-(5-chloro-2-((l-cyclopropyl-1H-pyrazol-4-yl)amino)pyrimidin-4-yl)-2-fluorophenoxy)methyl)cyclopropane carbonitrile]: the IC50 on JAK1 (setting [1]) worked out at 5.53 nM; at JAK2V617F (setting [2]), 1.49 nM.

On to `CC(=O)N1CCC(n2cc(Nc3ncc(C)c(-c4ccc(OCC(C)(C)C#N)c(F)c4)n3)cn2)CC1` [Example 28, 3-(4-(2-((1-(1-acetylpiperidin-4-yl)-1H-pyrazol-4-yl)amino)-5-methylpyrimidin-4-yl)-2-fluorophenoxy)-2,2-dimethylpropanenitrile], for which the figures for the IC50 at JAK1 (setting [1]) and on JAK2V617F (setting [2]) were under 2.5 nM and under 1.25 nM, respectively.

Take `Cc1cnc(Nc2cnn(CC#N)c2)nc1-c1ccc(OCC(C)(C)C#N)c(F)c1` [Example 30, 3-(4-(2-((1-(cyanomethyl)-1H-pyrazol-4-yl)amino)-5-methylpyrimidin-4-yl)-2-fluorophenoxy)-2,2-dimethylpropanenitrile]: the figures for the IC50 on JAK1 (setting [1]) and on JAK2 (setting [3]) were under 2.5 nM and 0.3 nM, respectively.

For the compound `Cc1cnc(Nc2cnn(CC#N)c2)nc1-c1ccc(OCC2(C#N)CC2)c(F)c1` [Example 31, 1-((4-(2-((1-(cyanomethyl)-1H-pyrazol-4-yl)amino)-5-methylpyrimidin-4-yl)-2-fluorophenoxy)methyl)cyclopropane-carbonitrile], the IC50 on JAK1 (setting [1]) came out at 7.94 nM; at JAK2 (setting [3]), 3.2 nM.

With `Cc1cnc(Nc2cnn(C3CC3)c2)nc1-c1ccc2c(c1)CC(C#N)CO2` (centres unmarked) [Example 34, 6-(2-((1-cyclopropyl-1H-pyrazol-4-yl)amino)-5-methylpyrimidin-4-yl)chroman-3-carbonitrile], the IC50 at JAK1 (setting [1]) is 136 nM; at JAK2 (setting [3]) it was 58.8 nM.

`Cc1cnc(Nc2cnn(C3CC3)c2)nc1-c1ccc(N(C)CC(C)(C)C#N)c(F)c1` [Example 35, 3-((4-(2-((1-cyclopropyl-1H-pyrazol-4-yl)amino)-5-methylpyrimidin-4-yl)-2-fluorophenyl)(methyl)amino)-2,2-dimethylpropanenitrile]: the IC50 on JAK1 (setting [1]) worked out at 72.1 nM; at JAK2 (setting [3]) it was 1.66 nM.

For `CN(CC(C)(C)C#N)c1ccc(-c2nc(Nc3cnn(C4CC4)c3)ncc2Cl)cc1F` [Example 36, 3-((4-(5-chloro-2-((1-cyclopropyl-1H-pyrazol-4-yl)amino)pyrimidin-4-yl)-2-fluorophenyl)(methyl)amino)-2,2-dimethylpropanenitrile], the IC50 on JAK1 (setting [1]) came out at 103 nM; at JAK2 (setting [3]) it was 4.6 nM.

For `COc1ccc(-c2nc(Nc3cnn(C)c3)ncc2C)cc1F` [Example 45, 4-(3-fluoro-4-methoxyphenyl)-5-methyl-N-(1-methyl-1H-pyrazol-4-yl)pyrimidin-2-amine, reference compound], the IC50 on JAK1 (setting [4]) was 110 nM; at JAK2 (setting [5]), 121 nM; at JAK2V617F (setting [6]) it was 206 nM.

Consider `Cc1cnc(Nc2cnn(C)c2)nc1-c1ccc(OC(C)C)c(F)c1` [Example 47, 4-(3-fluoro-4-isopropoxyphenyl)-5-methyl-N-(1-methyl-1H-pyrazol-4-yl)pyrimidin-2-amine, reference compound], for which the IC50 came out at 48.6 nM at JAK1 (setting [4]), 61.3 nM at JAK2 (setting [5]) and 84.2 nM at JAK2V617F (setting [6]).

Consider `CCCOc1ccc(-c2nc(Nc3cnn(C)c3)ncc2C)cc1F` [Example 48, 4-(3-fluoro-4-propoxyphenyl)-5-methyl-N-(1-methyl-1H-pyrazol-4-yl)pyrimidin-2-amine, reference compound], for which the IC50 at JAK1 (setting [4]) came to 25.7 nM; on JAK2 (setting [5]) it was 39.6 nM; on JAK2V617F (setting [6]), 60 nM.
